Laboratory results reported in ChEMBL document CHEMBL1641470, “New azoles with antifungal activity: Design, synthesis, and molecular docking” (2011).
Converted amounts (≈) assume the structure as drawn.

Assays:
Assay type in all cases: functional
[1] = test system: Trichophyton rubrum; test: Antifungal activity against Trichophyton rubrum by broth microdilution method
[2] = test system: Nannizzia gypsea; test: Antifungal activity against Microsporum gypseum by broth microdilution method
[3] = test system: Candida parapsilosis; test: Antifungal activity against Candida parapsilosis by broth microdilution method; conditions: Lodderomyces parapsilosis
[4] = test system: Cryptococcus neoformans; test: Antifungal activity against Cryptococcus neoformans ATCC BLS108 after 72 hrs by broth microdilution method
[5] = test system: Candida tropicalis; test: Antifungal activity against Candida tropicalis by broth microdilution method
[6] = test system: Candida albicans; test: Antifungal activity against Candida albicans ATCC Y0109 after 24 hrs by broth microdilution method
[7] = test system: Aspergillus fumigatus; test: Antifungal activity against Aspergillus fumigatus by broth microdilution method
[8] = test system: Fusarium; test: Antifungal activity against Fusarium by broth microdilution method

| Structure (SMILES) | MIC80 [1] | MIC80 [2] | MIC80 [3] | MIC80 [4] | MIC80 [5] | MIC80 [6] | MIC80 [7] | MIC80 [8] |
| --- | --- | --- | --- | --- | --- | --- | --- | --- |
| O=C(/C=C/c1ccc([N+](=O)[O-])cc1)Nc1ccc(N2CCN(CC(O)(Cn3cncn3)c3ccc(F)cc3F)CC2)c(F)c1 (stereo not given) | 0.0625 µg/mL (≈ 0.103 µM) | 0.25 µg/mL (≈ 0.411 µM) | 0.25 µg/mL (≈ 0.411 µM) | 1 µg/mL (≈ 1.65 µM) | 0.25 µg/mL (≈ 0.411 µM) | 0.0156 µg/mL (≈ 0.0257 µM) | > 64 µg/mL | 1 µg/mL (≈ 1.65 µM) |
| N#Cc1ccc(/C=C/C(=O)Nc2ccc(N3CCN(CC(O)(Cn4cncn4)c4ccc(F)cc4F)CC3)c(F)c2)cc1 (stereo not given) | 4 µg/mL (≈ 6.81 µM) | 4 µg/mL (≈ 6.81 µM) | 1 µg/mL (≈ 1.7 µM) | 1 µg/mL (≈ 1.7 µM) | 1 µg/mL (≈ 1.7 µM) | 0.25 µg/mL (≈ 0.425 µM) | > 64 µg/mL | 64 µg/mL (≈ 109 µM) |
| OC(Cn1cncn1)(Cn1cncn1)c1ccc(F)cc1F [FLUCONAZOLE] | 0.25 µg/mL (≈ 0.816 µM) | 0.25 µg/mL (≈ 0.816 µM) | 1 µg/mL (≈ 3.27 µM) | 1 µg/mL (≈ 3.27 µM) | 1 µg/mL (≈ 3.27 µM) | 4 µg/mL (≈ 13.1 µM) | 64 µg/mL (≈ 209 µM) | 16 µg/mL (≈ 52.2 µM) |
| CCC(C)n1ncn(-c2ccc(N3CCN(c4ccc(OCC5COC(Cn6cncn6)(c6ccc(Cl)cc6Cl)O5)cc4)CC3)cc2)c1=O (stereo not given) [ITRACONAZOLE] | 0.0152 µg/mL (≈ 0.0215 µM) | 0.0152 µg/mL (≈ 0.0215 µM) | 0.25 µg/mL (≈ 0.354 µM) | 1 µg/mL (≈ 1.42 µM) | 0.25 µg/mL (≈ 0.354 µM) | 1 µg/mL (≈ 1.42 µM) | 1 µg/mL (≈ 1.42 µM) | 0.25 µg/mL (≈ 0.354 µM) |
| C[C@@H](c1ncncc1F)[C@](O)(Cn1cncn1)c1ccc(F)cc1F [VORICONAZOLE] | 0.0039 µg/mL (≈ 0.0112 µM) | 0.0039 µg/mL (≈ 0.0112 µM) | 1 µg/mL (≈ 2.86 µM) | 0.0152 µg/mL (≈ 0.0435 µM) | 0.25 µg/mL (≈ 0.716 µM) | 0.0152 µg/mL (≈ 0.0435 µM) | > 64 µg/mL | 0.0152 µg/mL (≈ 0.0435 µM) |
